Assay results as given in patent US12065654B2, “Plants having increased tolerance to herbicides” (BASF SE, priority 2014, dated 2024).

Tests used:
[1] = tested on: Arabidopsis overexpression line Hordeum L320H, P321A; test: Germination assay in 48-well plates; format: in vivo, Arabidopsis thaliana; settings: IC50 transgenic / wildtype, mean of 5 T2 events
Experimental: (§1) Depending on the species, the plants are kept at 10-25° C. or 20-35° C. The test period extends over 3 weeks. During this time, the plants are tended and their response to the individual treatments is evaluated. Herbicide injury evaluations are taken at 2 and 3 weeks after treatment. Plant injury is rated on a scale of 0 to 9, 0 being no injury and 9 being complete death. Tolerance to HPPD-inhibiting, preferably pyrazolone, isoxazole, or triketone derivative herbicides can also be assessed in Arabidopsis. In this case transgenic Arabidopsis thaliana plants are assayed for improved tolerance to HPPD-inhibiting, preferably pyrazolone, isoxazole, or triketone derivative herbicides in 48-well plates. Seeds are surface sterilized by stirring for 5 min in ethanol+water (70+30 by volume), rinsing one time with ethanol+water (70+30 by volume) and two times with a sterile, deionized water. The seeds are resuspended in 0.1% agar dissolved in water (w/v). Four to five seeds per well are plated on solid nutrient medium consisting of half-strength Murashige Skoog nutrient solution, pH 5.8 (Murashige and Skoog (1962) Physiologia Plantarum 15: 473-497). Compounds are dissolved in dimethylsulfoxid (DMSO) and added to the medium prior solidification (final DMSO concentration 0.1%). Multi well plates are incubated in a growth chamber at 22° C., 75% relative humidity and 110 μmol Phot*m−2*s−1 with 14:10 h light:dark photoperiod. Seven to ten days after seeding growth inhibition is evaluated by comparison to wild type plants. Tolerance factor is calculated by dividing the plant growth IC50 value of transgenic plants containing a HPPD and/or HST sequence by that of wildtype plants.

[2] = tested on: Arabidopsis overexpression line Picrophilus HPPD; test: Germination assay in 48-well plates; format: in vivo, Arabidopsis thaliana; settings: IC50 transgenic / wildtype, mean of 5 T2 events
Experimental: as §1

[3] = tested on: Arabidopsis overexpression line Arabidopsis M335H, P336A, E363Q; test: Germination assay in 48-well plates; format: in vivo, Arabidopsis thaliana; settings: IC50 transgenic / wildtype, mean of 5 T2 events
Experimental: as §1

[4] = tested on: Arabidopsis overexpression line Rhodococcus HPPD2; test: Germination assay in 48-well plates; format: in vivo, Arabidopsis thaliana; settings: IC50 transgenic / wildtype, mean of 5 T2 events
Experimental: as §1

[5] = tested on: Arabidopsis overexpression line Arabidopsis F381I; test: Germination assay in 48-well plates; format: in vivo, Arabidopsis thaliana; settings: IC50 transgenic / wildtype, mean of 5 T2 events
Experimental: as §1

[6] = tested on: Arabidopsis overexpression line Hordeum L320Q; test: Germination assay in 48-well plates; format: in vivo, Arabidopsis thaliana; settings: IC50 transgenic / wildtype, mean of 5 T2 events
Experimental: as §1

[7] = tested on: Arabidopsis overexpression line Arabidopsis M335H; test: Germination assay in 48-well plates; format: in vivo, Arabidopsis thaliana; settings: IC50 transgenic / wildtype, mean of 5 T2 events
Experimental: as §1

[8] = tested on: soybean plants, transgene none (WT); test: Greenhouse testing of soybean plants; format: in vivo, Glycine max; settings: no transgene, 14 days after treatment
Experimental: (§2) Transgenic plants expressing heterologous HPPD or HST enzymes are tested for tolerance against HPPD-inhibiting, preferably pyrazolone, isoxazole, or triketone derivative herbicides in greenhouse experiments.
(§3) For post emergence treatment, the test plants are first grown to a height of 3 to 15 cm, depending on the plant habit, and only then treated with the herbicides. For this purpose, the test plants are either sown directly and grown in the same containers, or they are first grown separately and transplanted into the test containers a few days prior to treatment.
(§4) For testing of T0 plants, cuttings can be used. In the case of soybean plants, an optimal shoot for cutting is about 7.5 to 10 cm tall, with at least two nodes present. Each cutting is taken from the original transformant (mother plant) and dipped into rooting hormone powder (indole-3-butyric acid, IBA). The cutting is then placed in oasis wedges inside a bio-dome. Wild type cuttings are also taken simultaneously to serve as controls. The cuttings are kept in the bio-dome for 5-7 days and then transplanted to pots and then acclimated in the growth chamber for two more days. Subsequently, the cuttings are transferred to the greenhouse, acclimated for approximately 4 days, and then subjected to spray tests as indicated.
as §1, with “Plant injury is rated on a scale of 0 to 9, 0 being no injury and 9 being complete death.” left out
(§5) Transgenic soy plants were sprayed with a range of doses from 6.25-100 g/ha with an HPPD-inhibiting herbicide and injury evaluations were taken two weeks after treatment. […] Compared to the untransformed wild-type, plants comprising polynucleotides encoding for Arabidopsis HPPD wild-type or mutated versions thereof were less susceptible to Inhibitor 1.

[9] = tested on: transgenic soybean plants AtHPPD M335H, event SDS-9863; test: Greenhouse testing of soybean plants; format: in vivo, Glycine max; settings: soybean AtHPPD M335H SDS-9863, 14 days, average of 8 T1 individuals
Experimental: as §2, §3, §4
as §1, with “Plant injury is rated on a scale of 0 to 9, 0 being no injury and 9 being complete death.” left out
as §5

[10] = tested on: transgenic soybean plants GmHPPD, event SDS-10298; test: Greenhouse testing of soybean plants; format: in vivo, Glycine max; settings: soybean GmHPPD SDS-10298, 14 days, average of 8 T1 individuals
Experimental: as §2, §3, §4
as §1, with “Plant injury is rated on a scale of 0 to 9, 0 being no injury and 9 being complete death.” left out
as §5

With `Cc1c(C(=O)c2cnn(C)c2O)ccc(S(C)(=O)=O)c1C1=NOCC1` [Inhibitor 1, [3-(4,5-dihydroisoxazol-3-yl)-2-methyl-4-methylsulfonyl-phenyl]-(5-hydroxy-1-methyl-pyrazol-4-yl)methanone] the Tolerance factor [1] was 300, the Tolerance factor [2] was 10 and the Tolerance factor [3] was 25. For the same compound, the Tolerance factor [4] was 32, the Tolerance factor [5] was 90 and the Tolerance factor [6] was 100. The Tolerance factor [7] was 10, the “Injury evaluation (bleaching phenotype, scale of 1-100)” value (“Injury evaluation” for short) ([8]; 25 g/ha) was 90% and the “Injury evaluation” value ([8]; 100 g/ha) was 90%. For the same compound, the “Injury evaluation” value ([9]; 6.25 g/ha) was 0%, the “Injury evaluation” value ([9]; 25 g/ha) was 4% and the “Injury evaluation” value ([9]; 100 g/ha) was 59%. For the same compound, the “Injury evaluation” value ([10]; 6.25 g/ha) was 20%, the “Injury evaluation” value ([10]; 25 g/ha) was 58% and the “Injury evaluation” value ([10]; 100 g/ha) was 83%.
